Results on twelve molecules are retold here after patent publication US8685726B2, “Small molecules supporting pluripotent cell growth and methods thereof” (Viacyte, Inc., priority 2009, dated 2014).

Type in all cases: cell-based, human
For experiment [1], the system named is hES cells (e.g., BGO2 cells). The experiment can be described thus: Low-density colony forming / colony counting assay (AP+ colonies). To be noted: 10^4 cells/well, StemPro hESC SFM, 7 days; for support of colony formation at low density: compounds at 10 or 50 μM. How it is done:
FIG. 2. Low density plating assay of hES cells (e.g., BGO2 cells). 10000 cells/well were plated in 6-well trays in StemPro® hESC SFM (Life Technologies) medium and stained with alkaline phosphatase (AP+) after 7 days. Y (Y27632), ACh (acetylcholine), NMDA (N-methyl-D-aspartic acid), NE ((−)-Norepinephrine), NE.Bit ((±)-Norepinephrine (+)-bitartrate). Compounds were added at 10 or 50 μM as indicated.
FIG. 3. Low density plating assay of hES cells. (A) 200-10000 cells/well were plated in […] trays in StemPro® hESC SFM medium, or StemPro® hESC SFM +50 μM NE, or +50 μM ACh, and stained with alkaline phosphatase (AP+) after 8 days. […] ACh (acetylcholine), NE ((±)-Norepinephrine (+)-bitartrate). […]
About 10^4 hES cells/well were plated in 6-well trays in StemPro® hESC SFM, in the presence of different compounds and cultured for about 7 days. The cultures were then fixed, stained for alkaline phosphatase activity and colonies were counted (FIG. 2). […] The (±)-Norepinephrine (+)-bitartrate salt was used for all subsequent experiments involving norepinephrine (NE) unless specifically described otherwise.
A similar colony counting experiment was performed using a range of cell densities (FIG. 3). […] See Robins and Schulz 2009, supra. […]

A further experiment deals with hES cells. The experiment can be described thus: Low-density real-time cell index monitoring (RT-CES impedance reader). The note with it: for survival/proliferation compared to DMSO controls: StemPro hESC SFM HIA, low-density impedance assay; for survival and expansion at low density, single factors and two-factor combinations: 50 μM (NE, ACh, Adenosine, GABA) or 10 μM (Y27632), 5 days; for time after plating at which cell index rises above background / expansion detectable: 50 μM each factor. The method, then: FIG. 4. Titration of NE and ACh using the RT-CES impedance reader. 1000 hES cells/well were plated in StemPro® hESC SFM containing the indicated concentrations of small molecules (in μM). In such an assay, the timing of when the cell index rises is associated with the proportion of cells that survive and expand at low density.
FIG. 5. Combined effects of small molecules compound combinations in low cell density assays. (A) 1000 hES cells/well were plated in StemPro® hESC SFM containing small molecules at 50 μM (NE, ACh, Adenosine, GABA) or 10 μM (Y27632). The assay was carried out over 5 days using the RT-CES system.
FIG. 6. […] 1000 hES cells/well were plated in StemPro® hESC SFM containing Heregulin, IGF1 and Activin (HIA) and the indicated small molecules. […] Compounds were tested at 10 μM. The DMSO trace is an average of 8 wells. […] Compounds were tested at the indicated concentrations.
FIG. 7. […] 1000 hES cells/well were plated in StemPro® hESC SFM containing the indicated combinations of growth factors and small molecules. Heregulin (H), LR3-IGF1 (I), Activin (A).
FIG. 9. Low-density RT-CES assays of combinations of growth factors and neurotransmitters. 1000 hES cells/well were plated in StemPro® hESC SFM containing the indicated combinations of growth factors and small molecules. Heregulin (H), LR3-IGF1 (I), Activin (A). Small molecules were tested at 50 μM.
Furthermore, pluripotent cells can also be grown in 96-well culture devices that provide real-time measurements of impedance, which can be used to measure cell proliferation and viability using the RT-CES™ methods from ACEA Biosciences, Inc. (www (dot) aceabio (dot) com). Such an approach would enable a label-free identification and quantification of subtle or immediate effects on differentiable cells, as well as measurements of proliferation, apoptosis and changes to morphology, in real time.
To examine more closely the potency of individual neurotransmitters and determine if synergies exist between different factors, low-density assays were performed in real time using an impedance reader. The ACEA biosciences RT-CES system uses 96-well trays that contain embedded microsensors to monitor changes in electrical impedance, which is translated into a measure of cell index. Any overt alteration within a cell culture can be detected, including but not limited to cell proliferation, migration, cell spreading, apoptosis, differentiation and the like. […] Once an undifferentiated culture becomes confluent the cell index remains high, but tends to go down and up (scallop) between daily feedings. Conversely, differentiation is typically indicated by the appearance of distinctive patterns, such as peaks and troughs in the cell index, likely indicative of an epithelial-to-mesenchymal transition, flattening, cell migration, apoptosis or similar differentiation and growth related changes.
Human ES cells were plated at low density, 1000 cells/well, in RT-CES trays and cultured for 10 days (FIG. 4). Cells were plated directly in StemPro® hESC SFM containing carrier control (DMSO), NE, or ACh.

The subject of a further experiment is CyT49 cells. The experiment can be described thus: Suspension aggregate culture, cell counts and aggregate diameters. The method, then: FIG. 10. Effects of NE and ACh in suspension culture of hES cell. (A) 5×10^6 CyT49 cells were seeded in 5 ml StemPro® hESC SFM containing heregulin, LR3-IGF1, Activin and the indicated neurotransmitters at 50 μM in low-attachment 6-well trays and placed at 100 rpm. Undifferentiated suspension aggregates were imaged on day 4. (B) 24 hours after seeding, two wells from each condition were harvested and counted to determine the number of viable cells. (C) Cell counts of each condition when the cultures were split on day 4. (D) The images in (A) were used to determine aggregate diameters using the ImagePro software measurement tool. Average diameters and standard deviations from 50-100 aggregates from each condition are shown. (E) Passage 1 cell counting data. 5×10^6 CyT49 hES cells from p0 cells in (A) were seeded into the same conditions. The aggregates in the condition containing Y27632 were larger and had to be passaged 3 days after seeding, before the centers of the largest aggregates became necrotic. Conversely, the other conditions could be cultured for 6 days before passaging, resulting in higher cell counts.
FIG. 11. Suspension hES cell cultured with NE, […] remain undifferentiated. CyT49 cells were grown as suspension aggregates in the presence of NE, […] for 16 passages without differentiating morphologically. After p10, some cells were re-plated to adherent culture and examined by karyotyping and immunofluorescent staining for OCT4 and Tra-1-61. All cultures remained undifferentiated and expressed these pluripotency markers uniformly. (SP) StemPro® SFM HIA, NE (+NE at 50 μM), ACh (+ACh at 50 μM), NE/ACh (+NE/ACh at 50 μM). Karyotype data is shown to the right. […] Cultures containing ACh were aneuploid.
Small molecule ligands that support survival or self-renewal at low cell densities could also be expected to have beneficial effects in other culture formats. Applicants have previously developed a suspension culture system for hES cells that enables serial propagation of cells and effective expansion of cultures. Human ES cells, at least BG02 and CyT49 cells, have been maintained in suspension for greater than 10 passages without differentiation. The basis of the technique is to dissociate cultures to single cells with reagents that preserve high viability, such as Accutase™, TrypLE or cell dispersal buffer, then aggregate defined concentrations of cells in defined medium in rotational culture. These methods are described in more detail in International Application PCT/US2008/082356, entitled STEM CELL AGGREGATE SUSPENSION COMPOSITIONS AND METHODS OF DIFFERENTIATION THEREOF, filed Nov. 4, 2008; and International Application PCT/US2007/062755, entitled COMPOSITIONS AND METHODS FOR CULTURING DI[…], filed Feb. 23, 2007, which are herein incorporated by reference in their entireties. Self-aggregation of hES cells occurs in the absence of added extracellular matrix (ECM) or ECM-like proteins and is presumed to be driven in part by homotypic interaction of E-cadherin. The aggregates that are formed expand over 3-4 days and are kept apart from each other by the shear forces generated by rotational culture. Cells are blocked from differentiating by the self-renewal signaling provided by the defined medium and retain their pluripotent characteristics: marker expression, normal karyotype, and differentiation potential in vitro and in teratomas. […]

[2] abbreviates: 1000 cells/well, StemPro hESC SFM.

“Also recorded” adds a separate entry of the source.

With `CN1CCCC1c1cccnc1` (stereo not shown) [nicotine], in experiment [1], the “support of colony formation at low density” value (from here on “support of colony formation”) was “failed to support enhanced colony formation”.

Turning to `COc1cc(CC(=O)O)ccc1O` [HVA, homovanillic acid], in the experiment with hES cells (1000 cells/well), the “survival/proliferation compared to DMSO controls” value was “enhanced survival/proliferation”.

With `C[C@@H](N)[C@H]1CC[C@H](C(=O)Nc2ccncc2)CC1` [Y27632], the “AP+ colonies counted” value in experiment [1] (6-well trays) came to 0 colonies. Besides, in experiment [1], the “support of colony formation” value is given as “did not support colony survival/expansion”. Besides, the “survival and expansion at low density, single factors and two-factor combinations” value (from here on “survival and expansion at low density”) with hES cells (1000 cells/well) is “did not survive or proliferate; also recorded: reduced the effects of NE, ACh, Adenosine and GABA”. Further, the “cells generated at passage 1” value with CyT49 cells (passaged after 3 days) is “about 1.2×10^7 cells”. In addition, in the experiment with CyT49 cells (suspension, StemPro hESC SFM HIA, neurotransmitters 50 μM), the “aggregate size on day 4” value was “fewer numbers of larger aggregates”.

With `NCCc1c[nH]cn1` [histamine], the “support of colony formation” value in experiment [1] is “failed to support enhanced colony formation”. Besides, the “survival/proliferation compared to DMSO controls” value with hES cells (1000 cells/well) is recorded as “lack of robust activity”.

Take `CN[C@H](CC(=O)O)C(=O)O` [NMDA, N-methyl-D-aspartic acid]: the “support of colony formation” value in experiment [1] is reported as “failed to support enhanced colony formation”. Moreover, the “survival/proliferation compared to DMSO controls” value with hES cells (1000 cells/well) is given as “lack of robust activity”.

With (−)-Norepinephrine, in experiment [1], the “support of colony formation” value is “supported elevated colony formation”.

Take `NCCc1ccc(O)c(O)c1` [dopamine]: the “survival/proliferation compared to DMSO controls” value with hES cells (1000 cells/well) is recorded as “enhanced survival/proliferation”.

Regarding `Nc1ncnc2c1ncn2[C@@H]1O[C@H](CO)[C@@H](O)[C@H]1O` [adenosine], the “support of colony formation” value in experiment [1] is recorded as “supported elevated colony formation”. For the same molecule, the “survival and expansion at low density” value in the experiment on hES cells (1000 cells/well) is listed as “less effective”. Besides, the “time after plating at which cell index rises above background / expansion detectable” value with hES cells (setting [2]) is given as around 4.5 days.

On to `NCCc1c[nH]c2ccc(O)cc12` [serotonin], for which the “survival/proliferation compared to DMSO controls” value in the experiment with hES cells (1000 cells/well) is on record as “enhanced survival/proliferation”.

As to `NCCCC(=O)O` [GABA], in the experiment with hES cells (1000 cells/well), the “survival and expansion at low density” value was “less effective”; the “survival/proliferation compared to DMSO controls” value is reported as “lack of robust activity”. The “time after plating at which cell index rises above background / expansion detectable” value in the experiment on hES cells (setting [2]) is recorded as around 4.5 days.

With heregulin, the “low cell density survival with a single growth factor” value in the experiment with hES cells (setting [2]) is “did not support low cell density survival”.

B1: Activin: recombinant Activin A growth factor of the defined medium (protein, UniProt P08476 311-426, looked up)
Inhibin beta A chain: GLECDGKVNICCKKQFFVSFKDIGWNDWIIAPSGYHANYCEGECPSHIAGTSGSSLSFHSTVINHYRMRGHSPFANLKSCCVPTKLRPMSMLYYDDGQNIIKKDIQNMIVEECGCS
modifications: Inhibin beta A chain
Turning to B1, in the experiment with hES cells (low cell density), the “role in plating, survival and/or expansion at low cell density” value is “major negative role”.
